Experimental data published in patent US4738979A, “α2 -blocking derivatives of imidazole” (G. D. Searle & Co., priority 1985, dated 1988).

System: 5-methoxy-N,N-dimethyltryptamine-induced head twitching (serotoninergic syndrome)
Test: head twitches induced by 5-methoxy-N,N-dimethyltryptamine in mice
Format: in vivo
Text: The fourth in vivo study evaluated activity of the compounds of the invention on serotonin agonist-induced head twitching (serotoninergic syndrome). The compound 5-methoxy-N,N-dimethyl tryptamine is a serotonin agonist which induces head twitching in mice. The activity of this tryptamine compound is increased by antidepressant drugs. This study evaluated the ability of the compounds of the present invention to influence the effect of the tryptamine-induced head twitching (E. Friedman, et al., Eur. J. Pharmacol., 89, 69-76, 1983).
The compounds to be tested were administered to mice at the dose of 3 mg/kg p.o. either acutely or chronically twice a day continually for 2 weeks. The increased head twitching caused by the tryptamine compound (2 mg/kg i.p.) was observed 1, 24 and 72 hours after the last administration of the test compound.

Structure (SMILES): c1ccc(C(Cc2c[nH]cn2)c2ccccc2)cc1 [Compound 1, 4(5)-(2,2-diphenylethyl)-imidazole]
- Head Twitches/5 Minutes, percent compared to the vehicle treated group (acute, 3 mg/kg p.o., 1 h after last treatment, tryptamine compound 2 mg/kg i.p.): 171%
- Head Twitches/5 Minutes, percent compared to the vehicle treated group (chronic, 3 mg/kg p.o. twice a day 2 weeks, 1 h after last treatment): 278%
- Head Twitches/5 Minutes, percent compared to the vehicle treated group (chronic, 3 mg/kg p.o. twice a day 2 weeks, 24 h after last treatment): 210%
- Head Twitches/5 Minutes, percent compared to the vehicle treated group (chronic, 3 mg/kg p.o. twice a day 2 weeks, 72 h after last treatment): 211%
